Results: PubChem BioAssay AID2060496 (Molecular Pharmacology Branch, DTP, NCI, 2025)

Tested on: 276233-004-R-J1-PDC complex spheroid viability
Assay: Anticancer human tumor 276233-004-R-J1-PDC patient-derived colon adenocarcinoma cell line growth inhibition [GQUAD]
Conditions: for IC50: curve of first compound; for viability, T/C: stronger effect = lower value
Outline: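 Tumor cells were grown as complex spheroids with HUVEC endothelial cells and mesenchymal stem cells as stroma. G-quadruplex stabilizers were combined with targeted agents over half-log dilutions from near the clinical Cmax, or from 10 microM.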

[1] = second compound 0.0316 µM, first compound 0.0316 µM
[2] = second compound 0.0316 µM, first compound 0.1 µM
[3] = second compound 0.0316 µM, first compound 0.316 µM
[4] = second compound 0.0316 µM, first compound 1 µM
[5] = second compound 0.0316 µM, first compound 3.16 µM
[6] = second compound 0.0316 µM, first compound 10 µM
[7] = second compound 0.1 µM, first compound 0.0316 µM
[8] = second compound 0.1 µM, first compound 0.1 µM
[9] = second compound 0.1 µM, first compound 0.316 µM
[10] = second compound 0.1 µM, first compound 1 µM
[11] = second compound 0.1 µM, first compound 3.16 µM
[12] = second compound 0.1 µM, first compound 10 µM
[13] = second compound 0.316 µM, first compound 0.0316 µM
[14] = second compound 0.316 µM, first compound 0.1 µM
[15] = second compound 0.316 µM, first compound 0.316 µM
[16] = second compound 0.316 µM, first compound 1 µM
[17] = second compound 0.316 µM, first compound 3.16 µM
[18] = second compound 0.316 µM, first compound 10 µM
[19] = second compound 1 µM, first compound 0.0316 µM
[20] = second compound 1 µM, first compound 0.1 µM
[21] = second compound 1 µM, first compound 0.316 µM
[22] = second compound 1 µM, first compound 1 µM
[23] = second compound 1 µM, first compound 3.16 µM
[24] = second compound 1 µM, first compound 10 µM
[25] = second compound 3.16 µM, first compound 0.0316 µM
[26] = second compound 3.16 µM, first compound 0.1 µM
[27] = second compound 3.16 µM, first compound 0.316 µM
[28] = second compound 3.16 µM, first compound 1 µM
[29] = second compound 3.16 µM, first compound 3.16 µM
[30] = second compound 3.16 µM, first compound 10 µM
[31] = second compound 10 µM, first compound 0.0316 µM
[32] = second compound 10 µM, first compound 0.1 µM
[33] = second compound 10 µM, first compound 0.316 µM
[34] = second compound 10 µM, first compound 1 µM
[35] = second compound 10 µM, first compound 3.16 µM
[36] = second compound 10 µM, first compound 10 µM
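Further: spheroids exposed to drugs for seven days.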
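Wherever viability, T/C is given: 100% = DMSO vehicle control viability.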

SMILES: C=CCn1c(=O)c2cnc(Nc3ccc(N4CCN(C)CC4)cc3)nc2n1-c1cccc(C(C)(C)O)n1 + Cc1[nH]c2ccc(F)cc2c1-c1nc2c3cccnc3c3ncccc3c2[nH]1
- IC50 (second compound 0.0316 µM): > 10000 nM
- IC50 (second compound 0.1 µM): > 10000 nM
- IC50 (second compound 0.316 µM): > 10000 nM
- IC50 (second compound 1 µM): 104 nM
- IC50 (second compound 3.16 µM): < 31.6 nM
- IC50 (second compound 10 µM): < 31.6 nM
- viability, T/C [1]: 98.8%
- viability, T/C [2]: 86.5%
- viability, T/C [3]: 71.4%
- viability, T/C [4]: 67.8%
- viability, T/C [5]: 66.8%
- viability, T/C [6]: 66.6%
- viability, T/C [7]: 79.6%
- viability, T/C [8]: 79.5%
- viability, T/C [9]: 64.5%
- viability, T/C [10]: 48.3%
- viability, T/C [11]: 61%
- viability, T/C [12]: 52.7%
- viability, T/C [13]: 64%
- viability, T/C [14]: 58.4%
- viability, T/C [15]: 60.2%
- viability, T/C [16]: 41.1%
- viability, T/C [17]: 56.9%
- viability, T/C [18]: 61.4%
- viability, T/C [19]: 53.8%
- viability, T/C [20]: 53.9%
- viability, T/C [21]: 48%
- viability, T/C [22]: 36.4%
- viability, T/C [23]: 51.7%
- viability, T/C [24]: 50.4%
- viability, T/C [25]: 16.3%
- viability, T/C [26]: 14%
- viability, T/C [27]: 28.1%
- viability, T/C [28]: 18.1%
- viability, T/C [29]: 20.2%
- viability, T/C [30]: 23.9%
- viability, T/C [31]: 36.8%
- viability, T/C [32]: 35.8%
- viability, T/C [33]: 32.8%
- viability, T/C [34]: 26.7%
- viability, T/C [35]: 30.3%
- viability, T/C [36]: 35.4%

SMILES: CC(C)(O)C1CCC(Nc2ccc3ncc(-c4cccc(C(F)(F)F)c4)n3n2)CC1 (stereo unspecified) + Cc1[nH]c2ccc(F)cc2c1-c1nc2c3cccnc3c3ncccc3c2[nH]1
- IC50 (second compound 0.0316 µM): 2150 nM
- IC50 (second compound 0.1 µM): 922 nM
- IC50 (second compound 0.316 µM): 558 nM
- IC50 (second compound 1 µM): < 31.6 nM
- IC50 (second compound 3.16 µM): < 31.6 nM
- IC50 (second compound 10 µM): < 31.6 nM
- viability, T/C [1]: 78.5%
- viability, T/C [2]: 68.9%
- viability, T/C [3]: 72.2%
- viability, T/C [4]: 54.3%
- viability, T/C [5]: 46.7%
- viability, T/C [6]: 48.8%
- viability, T/C [7]: 73.3%
- viability, T/C [8]: 71%
- viability, T/C [9]: 75.6%
- viability, T/C [10]: 48.2%
- viability, T/C [11]: 42.2%
- viability, T/C [12]: 43.7%
- viability, T/C [13]: 56.8%
- viability, T/C [14]: 61%
- viability, T/C [15]: 64.2%
- viability, T/C [16]: 39%
- viability, T/C [17]: 34.8%
- viability, T/C [18]: 40.9%
- viability, T/C [19]: 46.4%
- viability, T/C [20]: 39.4%
- viability, T/C [21]: 40%
- viability, T/C [22]: 25.2%
- viability, T/C [23]: 26.6%
- viability, T/C [24]: 24.5%
- viability, T/C [25]: 17.1%
- viability, T/C [26]: 14.1%
- viability, T/C [27]: 17.6%
- viability, T/C [28]: 16.2%
- viability, T/C [29]: 10.1%
- viability, T/C [30]: 7.57%
- viability, T/C [31]: 39.4%
- viability, T/C [32]: 38%
- viability, T/C [33]: 33.9%
- viability, T/C [34]: 30.9%
- viability, T/C [35]: 13.7%
- viability, T/C [36]: 10.8%

SMILES: CCCS(=O)(=O)Nc1ccc(F)c(C(=O)c2c[nH]c3ncc(-c4ccc(Cl)cc4)cc23)c1F + Cc1[nH]c2ccc(F)cc2c1-c1nc2c3cccnc3c3ncccc3c2[nH]1
- IC50 (second compound 0.0316 µM): > 10000 nM
- IC50 (second compound 0.1 µM): > 10000 nM
- IC50 (second compound 0.316 µM): > 10000 nM
- IC50 (second compound 1 µM): < 31.6 nM
- IC50 (second compound 3.16 µM): < 31.6 nM
- IC50 (second compound 10 µM): < 31.6 nM
- viability, T/C [1]: 99.6%
- viability, T/C [2]: 82.8%
- viability, T/C [3]: 83.3%
- viability, T/C [4]: 101%
- viability, T/C [5]: 78.8%
- viability, T/C [6]: 50.8%
- viability, T/C [7]: 95.7%
- viability, T/C [8]: 81.7%
- viability, T/C [9]: 80.7%
- viability, T/C [10]: 78.5%
- viability, T/C [11]: 59.7%
- viability, T/C [12]: 61.2%
- viability, T/C [13]: 74.3%
- viability, T/C [14]: 71.2%
- viability, T/C [15]: 63.9%
- viability, T/C [16]: 65.3%
- viability, T/C [17]: 55%
- viability, T/C [18]: 61.9%
- viability, T/C [19]: 52.9%
- viability, T/C [20]: 41.3%
- viability, T/C [21]: 44.2%
- viability, T/C [22]: 50.1%
- viability, T/C [23]: 61.9%
- viability, T/C [24]: 37.7%
- viability, T/C [25]: 18.2%
- viability, T/C [26]: 12.9%
- viability, T/C [27]: 27.3%
- viability, T/C [28]: 15.5%
- viability, T/C [29]: 20.9%
- viability, T/C [30]: 13.1%
- viability, T/C [31]: 31.9%
- viability, T/C [32]: 35.4%
- viability, T/C [33]: 42.6%
- viability, T/C [34]: 30.3%
- viability, T/C [35]: 41.4%
- viability, T/C [36]: 27.5%
